Assay [1] relates to T-Rex 293 cell line SC3 cells having increased expression of androgen receptor protein due to exposure to doxycycline. Briefly: Cellular growth inhibition, T-Rex 293 SC3 cells with doxycycline (androgen receptor induced), CellTiter-Glo. It is filed as cell-based. Particulars: 72 h, T-Rex 293 SC3 cells with 10 ng/mL doxycycline (increased androgen receptor expression). Summed up:
(§1)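 Growth inhibition was compared in a T-Rex 293 clone with and without doxycycline (10 ng/mL)-driven androgen receptor overexpression. Compounds were applied for 72 h in hormone-depleted serum, and GI50 came from four-parameter curves of CellTiter-Glo signal.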

The subject of assay [2] is T-Rex 293 cell line SC3 cells lacking increased expression of androgen receptor protein. Briefly: Cellular growth inhibition, T-Rex 293 SC3 cells without doxycycline, CellTiter-Glo. It is filed as cell-based. The following applies: 72 h, T-Rex 293 SC3 cells not exposed to doxycycline, CellTiter-Glo 2.0. In outline: as §1
Background: In ATP-based viability assays light output follows the ATP content of the culture.

In the next assay the test system is VCaP cells. As to the kind of experiment: Cellular growth inhibition assay for VCaP cells, CellTiter-Glo. It is filed as cell-based, human. The following applies: Homo sapiens, VCaP, 72 h, 72 hours treatment, CellTiter-Glo 2.0. In outline:
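GI50 values come from four-parameter curve fits of luminescence data normalized to a zero baseline. Compound, in medium with 0.5% DMSO, was added one day after plating and left for 72 h before CellTiter-Glo 2.0 addition.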

The subject of another assay is T47D cells. As to the kind of experiment: Cellular growth inhibition assay for T47D cells, CellTiter-Glo. It is filed as cell-based, human. The following applies: Homo sapiens, T47D, 72 h, 72 hours treatment, CellTiter-Glo 2.0 cell viability. In outline: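 Cells are plated at 3000/well and allowed 24 h before treatment. Test compound in medium containing 0.5% DMSO is then added, with DMSO-only wells as negative control, and plates are incubated 72 h at 37 °C. ATP luminescence (CellTiter-Glo 2.0) is then fitted to four parameters to derive GI50.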

Turning to `Cc1sc2c(c1C)C(c1ccc(N3CCC(CNC(=O)c4ncc(C(=O)N[C@H]5C(C)(C)[C@H](Oc6ccc(C#N)c(Cl)c6)C5(C)C)cn4)CC3)cc1)=N[C@H](Cc1ncco1)c1nnc(C)n1-2` [Compound I-291], the GI50 in assay [1] was below 500 nM; in assay [2] it was 500 to 1500 nM; with VCaP cells it was below 500 nM; with T47D cells, 500 to 1500 nM.
For `Cc1sc2c(c1C)C(c1ccc(CNC(=O)CNC(=O)c3ncc(C(=O)N[C@H]4C(C)(C)[C@H](Oc5ccc(C#N)c(Cl)c5)C4(C)C)cn3)cc1)=N[C@@H](Cc1ncco1)c1nnc(C)n1-2` [Compound I-292], the GI50 in assay [1] is above 3000 nM; in assay [2], above 3000 nM; in the assay with VCaP cells, 500 to 1500 nM; with T47D cells, above 3000 nM.
As for `Cc1sc2c(c1C)C(c1ccc(C(=O)N3CCC(N(C)c4ncc(C(=O)N[C@H]5C(C)(C)[C@H](Oc6ccc(C#N)c(Cl)c6)C5(C)C)cn4)CC3)cc1)=N[C@@H](Cc1ncco1)c1nnc(C)n1-2` [Compound I-293], the GI50 in assay [1] is below 500 nM; in assay [2], above 3000 nM; with VCaP cells it was above 3000 nM; with T47D cells, above 3000 nM.
Consider `Cc1sc2c(c1C)C(c1ccc(C(=O)N3CCC(N(C)c4ncc(C(=O)N[C@H]5C(C)(C)[C@H](Oc6ccc(C#N)c(Cl)c6)C5(C)C)cn4)CC3)cc1)=N[C@H](Cc1ncco1)c1nnc(C)n1-2` [Compound I-294], for which the GI50 in assay [1] was below 500 nM; in assay [2], above 3000 nM; in the assay with VCaP cells it was 1500 to 3000 nM; with T47D cells it was 500 to 1500 nM.
For `Cc1sc2c(c1C)C(c1ccc([C@@H]3CCCN(c4ncc(C(=O)N[C@H]5C(C)(C)[C@H](Oc6ccc(C#N)c(Cl)c6)C5(C)C)cn4)C3)cc1)=N[C@@H](Cc1ncco1)c1nnc(C)n1-2` [Compound I-295] the same measures were below 500 nM, below 500 nM, below 500 nM and below 500 nM.
In the case of `Cc1sc2c(c1C)C(c1ccc(C[C@@H]3CCCN(c4ncc(C(=O)N[C@H]5C(C)(C)[C@H](Oc6ccc(C#N)c(Cl)c6)C5(C)C)cn4)C3)cc1)=N[C@@H](Cc1ncco1)c1nnc(C)n1-2` [Compound I-296], the GI50 is below 500 nM in assay [1], 500 to 1500 nM in assay [2], below 500 nM with VCaP cells and below 500 nM with T47D cells.
For `Cc1sc2c(c1C)C(c1ccc(C[C@H]3CCCN(c4ncc(C(=O)N[C@H]5C(C)(C)[C@H](Oc6ccc(C#N)c(Cl)c6)C5(C)C)cn4)C3)cc1)=N[C@@H](Cc1ncco1)c1nnc(C)n1-2` [Compound I-297], the GI50 in assay [1] was below 500 nM; in assay [2], 500 to 1500 nM; with VCaP cells, below 500 nM; with T47D cells, below 500 nM.
For the compound `Cc1sc2c(c1C)C(c1ccc(CC[C@H]3CCCC(c4ncc(C(=O)N[C@H]5C(C)(C)[C@H](Oc6ccc(C#N)c(Cl)c6)C5(C)C)cn4)C3)cc1)=N[C@@H](Cc1ncco1)c1nnc(C)n1-2` (stereo partly shown) [Compound I-298], the GI50 (in assay [1]; in assay [2]; in the assay with VCaP cells; with T47D cells) was below 500 nM each time.
`Cc1sc2c(c1C)C(c1ccc(CC[C@@H]3CCCN(c4ncc(C(=O)N[C@H]5C(C)(C)[C@H](Oc6ccc(C#N)c(Cl)c6)C5(C)C)cn4)C3)cc1)=N[C@@H](Cc1ncco1)c1nnc(C)n1-2` [Compound I-299]: the GI50 was below 500 nM in assay [1], 500 to 1500 nM in assay [2], below 500 nM in the assay with VCaP cells and 1500 to 3000 nM in the assay on T47D cells.
For `Cc1sc2c(c1C)C(c1ccc(OCC[C@@H]3CCCN(c4ncc(C(=O)N[C@H]5C(C)(C)[C@H](Oc6ccc(C#N)c(Cl)c6)C5(C)C)cn4)C3)cc1)=N[C@@H](Cc1ncco1)c1nnc(C)n1-2` [Compound I-300], the GI50 was below 500 nM in assay [1], 500 to 1500 nM in assay [2], below 500 nM in the assay on VCaP cells and below 500 nM in the assay with T47D cells.
In the case of `Cc1sc2c(c1C)C(c1ccc(OCC[C@H]3CCCN(c4ncc(C(=O)N[C@H]5C(C)(C)[C@H](Oc6ccc(C#N)c(Cl)c6)C5(C)C)cn4)C3)cc1)=N[C@@H](Cc1ncco1)c1nnc(C)n1-2` [Compound I-301], the GI50 is below 500 nM in assay [1], 500 to 1500 nM in assay [2], below 500 nM with VCaP cells and below 500 nM in the assay on T47D cells.
With `Cc1sc2c(c1C)C(c1ccc([C@H]3CCCN(c4ncc(C(=O)N[C@H]5C(C)(C)[C@H](Oc6ccc(C#N)c(Cl)c6)C5(C)C)cn4)C3)cc1)=N[C@@H](Cc1ncco1)c1nnc(C)n1-2` [Compound I-302], the GI50 was below 500 nM in assay [1], 500 to 1500 nM in assay [2], below 500 nM in the assay on VCaP cells and below 500 nM with T47D cells.
`Cc1sc2c(c1C)C(c1ccc(C[C@H]3CC[C@@H]4CN(c5ncc(C(=O)N[C@H]6C(C)(C)[C@H](Oc7ccc(C#N)c(Cl)c7)C6(C)C)cn5)CCN4C3)cc1)=C[C@H](Cc1ncco1)c1nnc(C)n1-2` [Compound I-306]: the GI50 (in assay [1]; in assay [2]; with VCaP cells; with T47D cells) was below 500 nM each time.
With `Cc1sc2c(c1C)C(c1ccc(C[C@H]3CC[C@@]4(C3)CN(c3ncc(C(=O)N[C@H]5C(C)(C)[C@H](Oc6ccc(C#N)c(Cl)c6)C5(C)C)cn3)CCO4)cc1)=N[C@@H](Cc1ncco1)c1nnc(C)n1-2` [Compound I-311], the GI50 (in assay [1]; in assay [2]; with VCaP cells; in the assay with T47D cells) was below 500 nM each time.
Regarding `Cc1sc2c(c1C)C(c1ccc(C[C@@H]3CC[C@]4(C3)CN(c3ncc(C(=O)N[C@H]5C(C)(C)[C@H](Oc6ccc(C#N)c(Cl)c6)C5(C)C)cn3)CCO4)cc1)=N[C@H](Cc1ncco1)c1nnc(C)n1-2` [Compound I-312], the GI50 in assay [1] is below 500 nM; in assay [2] it was below 500 nM; with VCaP cells, below 500 nM; with T47D cells it was 1500 to 3000 nM.
As to `Cc1sc2c(c1C)C(c1ccc(N3CCC[C@H](C(=O)N4CCCC4c4ncc(C(=O)N[C@H]5C(C)(C)[C@H](Oc6ccc(C#N)c(Cl)c6)C5(C)C)cn4)C3)cc1)=N[C@@H](Cc1ncco1)c1nnc(C)n1-2` (stereo partly shown) [Compound I-314], the GI50 in assay [1] is below 500 nM; in assay [2] it was above 3000 nM; with VCaP cells, below 500 nM; in the assay on T47D cells it was below 500 nM.
Regarding `Cc1sc2c(c1C)C(c1ccc(CN(C)C(=O)CCc3ncc(C(=O)N[C@H]4C(C)(C)[C@H](Oc5ccc(C#N)c(Cl)c5)C4(C)C)cn3)cc1)=N[C@@H](Cc1ncco1)c1nnc(C)n1-2` [Compound I-317], the GI50 is 1500 to 3000 nM in assay [1], above 3000 nM in assay [2], below 500 nM in the assay with VCaP cells and 500 to 1500 nM with T47D cells.
For `Cc1sc2c(c1C)C(c1ccc(C[C@H]3CC[C@H]4CN(c5ncc(C(=O)N[C@H]6C(C)(C)[C@H](Oc7ccc(C#N)c(Cl)c7)C6(C)C)cn5)CCN4C3)cc1)=NC(Cc1ncco1)c1nnc(C)n1-2` (stereo partly shown) [Compound I-324] the same measures were above 3000 nM, below 500 nM, below 500 nM and below 500 nM.
For `Cc1sc2c(c1C)C(c1ccc(OC3CCN(C4CCN(c5ncc(C(=O)N[C@H]6C(C)(C)[C@H](Oc7ccc(C#N)c(Cl)c7)C6(C)C)cn5)CC4)CC3)cc1)=N[C@@H](C)c1nnc(C)n1-2` [Compound I-325] the same measures were below 500 nM, 1500 to 3000 nM, above 3000 nM and 500 to 1500 nM.

What is called GI50 is the concentration that inhibits growth by half. A high value points to less potent growth inhibition.

For the origin of these results see patent US20260062422A1 (Halda Therapeutics OpCo, Inc., priority 2022, published 2026).
